Reference: patent US9771358B2, “Dihydropyrimidine compounds and their application in pharmaceuticals” (SUNSHINE LAKE PHARMA CO., LTD., priority 2014, dated 2017)

System: HBV
Test: In-vitro anti-HBV activity in stable HBV-producing cell line (HepG2.2.15), HBV DNA by qPCR
Assay type: cell-based
Settings: Hepatitis B virus
Procedure: HBV DNA contents in cell culture fluid were detected by the qPCR-based assay and 50% effective concentration (EC50) values of the compounds against HBV were calculated. Specific procedures are as follows:
HepG2.2.15 cells were seeded into each well of 96-well plates, 40,000 cells per well. Cells were treated with cell culture medium containing compounds with different concentrations for 24 hours after cell seeding. The final concentration of each compound was 16.4 μM in each well and each compound was diluted to desired concentration using 3-fold gradient dilution protocol, 9 diluted points in duplicate. The culture mediums containing the compounds were refreshed on day 4 post cell seeding. Culture media were collected from the HepG2.2.15 plates on day 7 post cell seeding followed by HBV DNA extraction.
HBV DNA extraction: The HBV DNA extraction was performed using QIAamp 96 DNA Blood Kit (QIAGEN 51161).
PCR for quantification: PCR mix was prepared according to PCR system. PCR mix was dispensed to 96-well optical reaction plates (special for quantification). The standard diluted proportionally was added. Then the sample was added; The plates were sealed with optical adhesive film; PCR system was performed according to programs.
Percentage of HBV inhibition of DNA replication by compound was calculated using the following equation: % Inh.=[1-HBV DNA quantity of sample/HBV DNA quantity of DMSO control]×100.
Calculating EC50 value of compounds to HBV replication: the EC50 values were calculated based on “four-parameter logistic equation” and using GraphPad Prism 5 analysis software.

[1] = 168 h, HepG2.2.15 cells, HBV DNA in culture fluid, day 7, top concentration 16.4 μM
[2] = HepG2.2.15, isomers of compound of formular (II)

CCOC(=O)C1=C(CN2CCO[C@@H](CCC(=O)O)C2)NC(c2nccs2)=N[C@H]1c1ccc(F)cc1Cl [Example 23, 3-((S)-4-(((R)-6-(2-Chloro-4-fluorophenyl)-5-(ethoxycarbonyl)-2-(thiazol-2-yl)-3,6-dihydropyrimidin-4-yl)methyl)morpholin-2-yl)propanoic acid] gave an EC50 [1] of 110 nM and an EC50 [2] of 110 nM.
In the case of COC(=O)C1=C(CN2CCOC[C@@H]2CCC(=O)O)NC(c2nccs2)=N[C@H]1c1ccc(F)cc1Cl [Example 18, 3-((S)-4-(((R)-6-(2-Chloro-4-fluorophenyl)-5-(methoxycarbonyl)-2-(thiazol-2-yl)-3,6-dihydropyrimidin-4-yl)methyl)morpholin-3-yl)propanoic acid], the EC50 [1] is reported as 10 nM.
Molecule CCOC(=O)C1=C(CN2CCOC[C@@H]2CCC(=O)O)NC(c2nccs2)=N[C@H]1c1ccc(Cl)cc1Cl [Example 19, 3-((S)-4-(((R)-6-(2,4-Dichlorophenyl)-5-(ethoxycarbonyl)-2-(thiazol-2-yl)-3,6-dihydropyrimidin-4-yl)methyl)morpholin-3-yl)propanoic acid] has an EC50 [1] of 6 nM.
COC(=O)C1=C(CN2CCOC[C@@H]2CCC(=O)O)NC(c2nccs2)=N[C@H]1c1ccc(F)cc1Br [Example 16, 3-((S)-4-(((R)-6-(2-Bromo-4-fluorophenyl)-5-(methoxycarbonyl)-2-(thiazol-2-yl)-3,6-dihydropyrimidin-4-yl)methyl)morpholin-3-yl)propanoic acid] showed an EC50 [1] of 9 nM.
Work on COC(=O)C1=C(CN2CCO[C@H](CCC(=O)O)C2)NC(c2nccs2)=N[C@@H]1c1ccc(F)cc1Cl [Example 39, 3-((R)-4-(((S)-6-(2-Chloro-4-fluorophenyl)-5-(methoxycarbonyl)-2-(thiazol-2-yl)-3,6-dihydropyrimidin-4-yl)methyl)morpholin-2-yl)propanoic acid] yielded an EC50 [1] of over 15200 nM.
CCOC(=O)C1=C(CN2CCOC[C@@H]2CCC(=O)O)NC(c2nccs2)=N[C@H]1c1ccc(F)cc1Br [Example 15, 3-((S)-4-(((R)-6-(2-Bromo-4-fluorophenyl)-5-(ethoxycarbonyl)-2-(thiazol-2-yl)-3,6-dihydropyrimidin-4-yl)methyl)morpholin-3-yl)propanoic acid] gave an EC50 [1] of 7.94 nM.
Molecule CCOC(=O)C1=C(CN2CCOCC2CCC(=O)O)NC(c2nccs2)=NC1c1ccc(F)cc1Br (racemic) [contrast 11, 3-(4-((6-(2-bromo-4-fluorophenyl)-5-(ethoxycarbonyl)-2-(thiazol-2-yl)-3,6-dihydropyrimidin-4-yl)methyl)morpholin-3-yl)propanoic acid, reference compound] has an EC50 [1] of 80 nM.
With CCOC(=O)C1=C(CN2CCOC[C@H]2CCC(=O)O)NC(c2nccs2)=N[C@H]1c1ccc(F)cc1Br [Example 8, 3-((R)-4-(((R)-6-(2-Bromo-4-fluorophenyl)-5-(ethoxycarbonyl)-2-(thiazol-2-yl)-3,6-dihydropyrimidin-4-yl)methy)morpholin-3-yl)propanoic acid] the EC50 [1] was 25 nM.
CCOC(=O)C1=C(CN2CCO[C@@H](CCC(=O)O)C2)NC(c2nccs2)=N[C@@H]1c1ccc(Cl)cc1Cl [Example 44, 3-((S)-4-(((S)-6-(2,4-Dichlorophenyl)-5-(ethoxycarbonyl)-2-(thiazol-2-yl)-3,6-dihydropyrimidin-4-yl)methyl)morpholin-2-yl)propanoic acid] was tested, and the EC50 [1] was over 14900 nM.
Work on CCOC(=O)C1=C(CN2CCOC(CCC(=O)O)C2)NC(c2nccs2)=NC1c1ccc(Cl)cc1Cl (racemic) [contrast 5, 3-(4-((6-(2,4-dichlorophenyl)-5-(ethoxycarbonyl)-2-(thiazol-2-yl)-3,6-dihydropyrimidin-4-yl)methyl)morpholin-2-yl)propanoic acid, reference compound] yielded an EC50 [1] of 230 nM.
COC(=O)C1=C(CN2CCO[C@@H](CCC(=O)O)C2)NC(c2nccs2)=N[C@@H]1c1ccc(Cl)cc1Cl [Example 46, 3-((S)-4-(((S)-6-(2,4-Dichlorophenyl)-5-(methoxycarbonyl)-2-(thiazol-2-yl)-3,6-dihydropyrimidin-4-yl)methyl)morpholin-2-yl)propanoic acid] was tested, and the EC50 [1] was over 14200 nM.
CCOC(=O)C1=C(CN2CCOCC2CCC(=O)O)NC(c2nccs2)=NC1c1ccc(Cl)cc1Cl (racemic) [contrast 9, 3-(4-((6-(2,4-dichlorophenyl)-5-(ethoxycarbonyl)-2-(thiazol-2-yl)-3,6-dihydropyrimidin-4-yl)methyl)morpholin-3-yl)propanoic acid, reference compound] gave an EC50 [1] of 63 nM.
Molecule COC(=O)C1=C(CN2CCOCC2CCC(=O)O)NC(c2nccs2)=NC1c1ccc(F)cc1Br (racemic) [contrast 12, 3-(4-((6-(2-bromo-4-fluorophenyl)-5-(methoxycarbonyl)-2-(thiazol-2-yl)-3,6-dihydropyrimidin-4-yl)methyl)morpholin-3-yl)propanoic acid, reference compound] has an EC50 [1] of 75 nM.
COC(=O)C1=C(CN2CCOC[C@H]2CCC(=O)O)NC(c2nccs2)=N[C@@H]1c1ccc(F)cc1Br [Example 49, 3-((R)-4-(((S)-6-(2-Bromo-4-fluorophenyl)-5-(methoxycarbonyl)-2-(thiazol-2-yl)-3,6-dihydropyrimidin-4-yl)methyl)morpholin-3-yl)propanoic acid] gave an EC50 [1] of over 16400 nM.
COC(=O)C1=C(CN2CCOCC2CCC(=O)O)NC(c2nccs2)=NC1c1ccc(F)cc1Cl (racemic) [contrast 8, 3-(4-((6-(2-chloro-4-fluorophenyl)-5-(methoxycarbonyl)-2-(thiazol-2-yl)-3,6-dihydropyrimidin-4-yl)methyl)morpholin-3-yl)propanoic acid, reference compound] gave an EC50 [1] of 90 nM.
Molecule CCOC(=O)C1=C(CN2CCO[C@@H](CCC(=O)O)C2)NC(c2nccs2)=N[C@@H]1c1ccc(F)cc1Cl [Example M4] has an EC50 [2] of over 16400 nM.
COC(=O)C1=C(CN2CCOC[C@@H]2CCC(=O)O)NC(c2nccs2)=N[C@H]1c1ccc(Cl)cc1Cl [Example 20, 3-((S)-4-(((R)-6-(2,4-Dichlorophenyl)-5-(methoxycarbonyl)-2-(thiazol-2-yl)-3,6-dihydropyrimidin-4-yl)methyl)morpholin-3-yl)propanoic acid] gave an EC50 [1] of 5.5 nM.
In the case of COC(=O)C1=C(CN2CCO[C@H](CCC(=O)O)C2)NC(c2nccs2)=N[C@@H]1c1ccc(F)cc1Br [Example 41, 3-((R)-4-(((S)-6-(2-Bromo-4-fluorophenyl)-5-(methoxycarbonyl)-2-(thiazol-2-yl)-3,6-dihydropyrimidin-4-yl)methyl)morpholin-2-yl)propanoic acid], the EC50 [1] is reported as over 12800 nM.
Molecule COC(=O)C1=C(CN2CCO[C@@H](CCC(=O)O)C2)NC(c2nccs2)=N[C@@H]1c1ccc(F)cc1Br [Example 42, 3-((S)-4-(((S)-6-(2-Bromo-4-fluorophenyl)-5-(methoxycarbonyl)-2-(thiazol-2-yl)-3,6-dihydropyrimidin-4-yl)methyl)morpholin-2-yl)propanoic acid] has an EC50 [1] of over 15300 nM.
Molecule COC(=O)C1=C(CN2CCOC[C@H]2CCC(=O)O)NC(c2nccs2)=N[C@H]1c1ccc(F)cc1Br [Example 14, 3-((R)-4-(((R)-6-(2-Bromo-4-fluorophenyl)-5-(methoxycarbonyl)-2-(thiazol-2-yl)-3,6-dihydropyrimidin-4-yl)methyl)morpholin-3-yl)propanoic acid] has an EC50 [1] of 140 nM.
